The record followed here is patent US10344049B2, “Substituted steroids for the treatment of cancer” (AQUAVAN TECHNOLOGY CO., LTD., priority 2017, dated 2019).

The structures appear in SMILES notation. Where two headings read alike, the source gives them in different places.

Holding throughout (type): cell-based
In test [1] the test system is African green monkey kidney cells Vero. The experiment in a line: Cell viability test (Resazurin), Vero cells. As for the experimental part: (§1) Cell viability was determined with Resazurin (at a final concentration of 25 μg/mL).
For orientation: Resazurin is reduced to fluorescent resorufin, in cell work by metabolically active cells.

The test system of test [2] is human breast cancer cells MDA-MB-231. In words: Cell viability test (Resazurin), MDA-MB-231 cells. To be noted: MDA-MB-231 cells. As for the experimental part:
as §1

In test [3] the test system is human Glioblastoma cells U87-MG. In words: Cell viability test (Resazurin), U87-MG cells. As for the experimental part:
as §1

The subject of test [4] is human breast cancer cells MDA-MB-468. In words: Cell viability test (Resazurin), MDA-MB-468 cells. To be noted: MDA-MB-468 cells. On the procedure: as §1
Test [5] relates to human liver cancer cells Mahlavu. The experiment in a line: Cell viability test (Resazurin), Mahlavu cells. As for the experimental part:
as §1

In test [6] the test system is human lung cancer cells A549. The experiment in a line: Cell viability test (Resazurin), A549 cells. Conditions: A549 cells. As for the experimental part: as §1
Test [7] deals with human colorectal cancer cells SW-480. The experiment in a line: Cell viability test (Resazurin), SW480 cells. To be noted: SW480 cells. As for the experimental part:
as §1

The test system of test [8] is human leukemia cells U937. The experiment in a line: Cell viability test (Resazurin), U937 cells. To be noted: U937 cells. As for the experimental part: as §1
Where [9] appears, read: 48 hours, 0.1% FCS, Resazurin, read-out: inhibitory concentrations of cell growth activity IC50.
[10] abbreviates: grade of the IC50 of Table 2, read-out: evaluation of ability to inhibit cell growth activity (IC50).

For `CC(C)=C[C@@H](C[C@@H](C)[C@H]1CC[C@@]2(C)[C@@H]3[C@@H](O)C=C4[C@@H](CC[C@H](O)C4(C)C)[C@]3(C=O)CC[C@]12C)O[C@@H]1O[C@H](CO)[C@@H](O)[C@H](O)[C@H]1O` [Compound 12], the IC50 in test [1] (setting [9]) is 124 µM; in test [1] (setting [10]) it was 64 to 256 µM; in test [2] (setting [9]), 41.7 µM; in test [2] (setting [10]), 16 to 64 µM; in test [3] (setting [9]) it was 49 µM; in test [3] (setting [10]), 16 to 64 µM. Besides, the IC50 in test [4] (setting [9]) was 56.5 µM; in test [4] (setting [10]), 16 to 64 µM; in test [5] (setting [9]), 70.3 µM; in test [5] (setting [10]), 64 to 256 µM; in test [6] (setting [9]), 100 µM; in test [6] (setting [10]), 64 to 256 µM. Also, the IC50 in test [7] (setting [9]) is 98.6 µM; in test [7] (setting [10]) it was 64 to 256 µM; in test [8] (setting [9]), 58.6 µM; in test [8] (setting [10]) it was 16 to 64 µM.

Take `CC(C)=C[C@H](O)C[C@@H](C)[C@H]1CC[C@@]2(C)[C@@H]3[C@@H](O[C@@H]4O[C@H](CO)[C@@H](O)[C@H](O)[C@H]4O)C=C4[C@@H](CC[C@H](O)C4(C)C)[C@]3(C=O)CC[C@]12C` [Compound 13]: the IC50 in test [1] (setting [9]) was more than 256 µM; in test [1] (setting [10]), more than 256 µM; in test [2] (setting [9]) it was 59.4 µM; in test [2] (setting [10]), 16 to 64 µM; in test [3] (setting [9]) it was 103 µM; in test [3] (setting [10]) it was 64 to 256 µM. Moreover, the IC50 in test [4] (setting [9]) was 58.3 µM; in test [4] (setting [10]) it was 16 to 64 µM; in test [5] (setting [9]) it was more than 256 µM; in test [5] (setting [10]), more than 256 µM; in test [6] (setting [9]), 198 µM; in test [6] (setting [10]) it was 64 to 256 µM. Moreover, the IC50 in test [7] (setting [9]) was 67.2 µM; in test [7] (setting [10]), 64 to 256 µM; in test [8] (setting [9]), 32.5 µM; in test [8] (setting [10]), 16 to 64 µM.

For `C[C@H](C/C=C/C(C)(C)O)[C@H]1CC[C@@]2(C)[C@@H]3[C@@H](O[C@@H]4O[C@H](CO)[C@@H](O)[C@H](O)[C@H]4O)C=C4[C@@H](CC[C@H](O)C4(C)C)[C@]3(C=O)CC[C@]12C` [Compound 14], the IC50 is more than 256 µM in test [1] (setting [9]); more than 256 µM in test [1] (setting [10]); 32.8 µM in test [2] (setting [9]); 16 to 64 µM in test [2] (setting [10]); 58.5 µM in test [3] (setting [9]); 16 to 64 µM in test [3] (setting [10]). In addition, the IC50 in test [4] (setting [9]) is 39.3 µM; in test [4] (setting [10]) it was 16 to 64 µM; in test [5] (setting [9]) it was more than 256 µM; in test [5] (setting [10]) it was more than 256 µM; in test [6] (setting [9]), 171 µM; in test [6] (setting [10]), 64 to 256 µM. The IC50 in test [7] (setting [9]) was 64.2 µM; in test [7] (setting [10]), 64 to 256 µM; in test [8] (setting [9]), 19.8 µM; in test [8] (setting [10]), 16 to 64 µM.
